Results as given in PubChem BioAssay (NCI).
Values joined by “and” are separate entries in the source; they are usually repeats but may differ in a detail not shown here. Identical values can stand only once.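 Protocol summary: plate cells (96-well), add compound at 5 concentrations, incubate 48 h, interpolate endpoints linearly. Here, GI50 denotes the concentration required for 50% inhibition of growth. The concentration for full growth arrest is given as TGI.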

Legend:
Assay in all cases: inhibition of tumour cell growth, NCI panel, 48 h
T-47D breast = tested on: T-47D breast
NCI-H522 lung = tested on: NCI-H522 lung
HS 578T breast = tested on: HS 578T breast
SNB-75 CNS = tested on: SNB-75 CNS
NCI/ADR-RES ovarian = tested on: NCI/ADR-RES ovarian
NCI-H460 lung = tested on: NCI-H460 lung
DU-145 prostate = tested on: DU-145 prostate
KM12 colon = tested on: KM12 colon
HCT-116 colon = tested on: HCT-116 colon
A549 NSCLC = tested on: A549 NSCLC

| Compound | TGI (T-47D breast) | TGI (NCI-H522 lung) | TGI (HS 578T breast) | TGI (SNB-75 CNS) | TGI (NCI/ADR-RES ovarian) | TGI (NCI-H460 lung) | TGI (DU-145 prostate) | TGI (KM12 colon) | TGI (HCT-116 colon) | TGI (A549 NSCLC) | GI50 (A549 NSCLC) |
| --- | --- | --- | --- | --- | --- | --- | --- | --- | --- | --- | --- |
| CN1CCN(C(=O)c2cn(Cc3cncn3Cc3ccc4c(c3)OCO4)cc2-c2cccc3ccccc23)CC1 | > 100 µM | 84.1 µM | > 100 µM | 67.9 µM | > 100 µM | > 100 µM | > 100 µM | > 58.3 µM | > 100 µM | > 100 µM | – |
| Nc1[nH]c(=O)nc2c1ncn2C1OC(CO)C(O)C1O (stereo unspecified) | 70.3 µM | > 100 µM | > 100 µM | 20.6 µM | 51.1 µM | > 100 µM | 66.3 µM | > 100 µM | > 100 µM | > 100 µM | – |
| CCCCCC[C@H]([C@H](C)O)n1cnc2c(N)ncnc21 | > 100 µM | – | > 100 µM | > 100 µM | > 100 µM | > 100 µM | > 100 µM | > 100 µM | > 100 µM | > 100 µM | – |
| Clc1ccc2c(NCCCCCCNc3ccnc4cc(Cl)ccc34)ccnc2c1 | 5.42 µM | 3.19 µM | > 48.8 µM | 8.61 µM | 27.9 µM | 6.3 µM | 14.1 µM | 7.88 µM | 3.85 µM | 20.7 µM | – |
| COc1ccccc1NC(=O)C(=O)C(C(=O)c1ccccc1F)C1OC(=O)c2ccccc21 (stereo unspecified) | – | 35.7 µM | – | 62.8 µM | – | 74.7 µM | – | 64 µM | 44.3 µM | > 100 µM | – |
| COC1CC(C)(NC(=O)C(F)(F)F)C2OC(c3ccccc3)OCC2O1 (stereo unspecified) | > 100 µM | > 100 µM | > 100 µM | > 100 µM | > 100 µM | > 100 µM | > 100 µM | > 100 µM | > 100 µM | > 100 µM | – |
| COC(=N)C1(C#N)NC(c2ccsc2)C(C#N)(C#N)NC1c1ccsc1 (stereo unspecified) | > 100 µM | > 100 µM | > 100 µM | > 100 µM | > 100 µM | > 100 µM | > 100 µM | > 100 µM | > 100 µM | > 100 µM | – |
| O=C1Nc2ccccc2/C1=C\c1c(Cl)n(-c2ccccc2)c2ccccc12 | 56.7 µM | – | 5.71 µM | 7.03 µM | 8.67 µM | 21.7 µM | 8.91 µM | 14 µM | 6.26 µM | 25 µM | – |
| Cc1nc2c(Br)cc(Br)cc2c(=O)n1-c1ccccc1NC1OC(CO)C(O)C(O)C1O (stereo unspecified) | > 100 µM | > 100 µM | > 100 µM | > 100 µM | > 100 µM | > 100 µM | > 100 µM | > 100 µM | > 100 µM | > 100 µM | 27.8 µM and > 100 µM |
| CC1=C(CO)C(=O)OC(C(C)C2CCC3C4CC5OC56C(O)C(N5CC5)=CC(=O)C6(C)C4CCC23C)C1 (stereo unspecified) | – | 3.36 µM | – | 18.6 µM | – | 25 µM | – | 5.01 µM | 12.2 µM | 29.6 µM | – |
| Cc1nc(NC(C)(CO)CO)nc(N/N=C/c2ccc(Cl)cc2)c1C(=O)Nc1ccc(Cl)cc1 | > 100 µM | > 100 µM | > 100 µM | > 100 µM | > 100 µM | > 100 µM | > 100 µM | > 100 µM | > 100 µM | > 100 µM | – |
| CC(=O)NC1C(OCc2ccccc2)OC(CO)C(O)C1OC(C)C(=O)N[C@@H](C)C(=O)N[C@H](CCC(=O)NCCNCCNc1c2ccccc2nc2cccc([N+](=O)[O-])c12)C(N)=O (stereo partly specified) | 0.598 µM | 0.0665 µM | 5.13 µM | 0.883 µM | 10.6 µM | 0.0486 µM | 0.231 µM | 0.352 µM | 0.512 µM | 1.71 µM | – |
| FC1=C2C3CCC(C3)C2C1(F)F (stereo unspecified) | > 100 µM | > 100 µM | – | > 100 µM | > 100 µM | > 100 µM | > 100 µM | > 100 µM | > 100 µM | > 100 µM | – |
| NC(=O)CCC(N=c1c2ccccc2n(O)c2ccccc12)C(=O)O (stereo unspecified) | – | > 100 µM | – | > 100 µM | – | > 100 µM | – | > 100 µM | > 100 µM | > 100 µM | – |
| CC(=O)n1[nH]c(=O)n(-c2ccc(Cl)cc2)c1=O | > 100 µM | > 100 µM | – | – | > 100 µM | > 100 µM | > 100 µM | > 100 µM | > 100 µM | > 100 µM | – |
| Cc1ccccc1NC(=O)O/N=C(\Cl)C(C)C | 11.3 µM | 3.18 µM | 58.5 µM | 32.1 µM | 33.7 µM | 34.7 µM | 31.5 µM | 36.2 µM | 4.79 µM | 36.8 µM | – |
| CCC1(O)CC(CCN(Cc2ccccc2)C(=O)OCc2ccccc2)C(OCc2ccccc2)C1O (stereo unspecified) | 30.6 µM | 23.5 µM | – | 25.7 µM | 25.7 µM | 31.3 µM | 36.3 µM | 27.3 µM | 48.8 µM | 27.1 µM | – |
| CCOC(=O)c1c(N)sc2c1C(C(=O)OCC)CCCC2 (stereo unspecified) | 78.3 µM | – | > 100 µM | > 100 µM | – | > 100 µM | – | > 100 µM | > 100 µM | > 100 µM | – |
| CSC(SC)=C(C(=O)c1ccc(Cl)cc1)n1c(=O)sc2cc(Br)ccc21 | > 100 µM | > 100 µM | > 100 µM | – | > 100 µM | > 100 µM | > 100 µM | > 100 µM | > 100 µM | > 100 µM | – |
| CC(O)c1nc(C#N)c(N)o1 (stereo unspecified) | > 100 µM | > 100 µM | > 100 µM | > 100 µM | > 100 µM | – | > 100 µM | > 100 µM | > 100 µM | > 100 µM | – |
| COc1cc2c[n+]3c4c(c2c(OC)c1OC)CCCC4CC3 (stereo unspecified) | > 100 µM | > 100 µM | 62.3 µM | – | > 100 µM | > 100 µM | > 100 µM | > 100 µM | > 100 µM | > 100 µM | – |
| COC(=O)c1c2c(cc3c1CC1(Cc4cc5c(c(C=O)c4C1)CCC5)C3)CCC2 (stereo unspecified) | > 100 µM | 56.6 µM | > 100 µM | > 100 µM | > 100 µM | > 100 µM | > 100 µM | – | 60 µM | > 100 µM | – |
